Source: US8604053B2, “TRPV1 antagonists” (AbbVie Inc., priority 2008, dated 2013)

Biological target: T1, human TRPV1 (Homo sapiens, UniProt Q8NER1)
T1 construct: expressed in transfected cells; host or cells: HEK293-F cells, transient transfection
Assay: Acid activation assay, ratiometric calcium imaging
Type: cell-based
Settings: HEK293-F cells expressing human TRPV1, Example 56 at 3 μM; for block of TRPV1-mediated increase in intracellular calcium concentration in response to pH 5.5: acid pH 5.5; for block of TRPV1-mediated increase in intracellular calcium concentration in response to capsaicin: capsaicin 1 μM
Method: The differential effects of TRPV1 antagonists on capsaicin- or acid-induced responses were verified by ratiometric calcium imaging. Transiently transfected HEK293-F cells expressing human TRPV1 were incubated with 5 μM Fura-2AM for 30 minutes at 37° C. Intracellular calcium concentration was measured on an imaging system consisting of the X-Cite™ 120 Fluorescence Illumination System (EXFO) and a Digital Camera (C4742-95, Hamamatsu Photonics) connected to an Olympus 1×71 microscope. Through the control of Slide Book 4.2 software, fluorescence was measured during excitation at 340 and 380 nm; the ratio of the fluorescence at both excitation wavelengths (F340/F380) was monitored. D-PBS, pH 7.4 (Invitrogen, catalog no. 14287) was used as the extracellular solution. Acidic buffer was prepared by titrating D-PBS, pH 7.4 with 7 N HCl to pH 5.5. Agonists and antagonists were prepared in the pH 7.4 or 5.5 solutions. Rapid solution switch was achieved by using a ValveLink system.
Over the time 1250-second course, the cells were challenged sequentially with solutions containing Example 56 (3 μM), Example 56 (3 μM) plus capsaicin (1 μM), Example 56 (3 μM) plus acid (pH 5.5), or acid (pH 5.5) alone. The black bars above the traces designate addition and duration of solution applications. Spaces between horizontal bars represent periods in which cells were perfused with D-PBS, pH 7.4 alone. […]

T1 sequence (Q8NER1 whole entry): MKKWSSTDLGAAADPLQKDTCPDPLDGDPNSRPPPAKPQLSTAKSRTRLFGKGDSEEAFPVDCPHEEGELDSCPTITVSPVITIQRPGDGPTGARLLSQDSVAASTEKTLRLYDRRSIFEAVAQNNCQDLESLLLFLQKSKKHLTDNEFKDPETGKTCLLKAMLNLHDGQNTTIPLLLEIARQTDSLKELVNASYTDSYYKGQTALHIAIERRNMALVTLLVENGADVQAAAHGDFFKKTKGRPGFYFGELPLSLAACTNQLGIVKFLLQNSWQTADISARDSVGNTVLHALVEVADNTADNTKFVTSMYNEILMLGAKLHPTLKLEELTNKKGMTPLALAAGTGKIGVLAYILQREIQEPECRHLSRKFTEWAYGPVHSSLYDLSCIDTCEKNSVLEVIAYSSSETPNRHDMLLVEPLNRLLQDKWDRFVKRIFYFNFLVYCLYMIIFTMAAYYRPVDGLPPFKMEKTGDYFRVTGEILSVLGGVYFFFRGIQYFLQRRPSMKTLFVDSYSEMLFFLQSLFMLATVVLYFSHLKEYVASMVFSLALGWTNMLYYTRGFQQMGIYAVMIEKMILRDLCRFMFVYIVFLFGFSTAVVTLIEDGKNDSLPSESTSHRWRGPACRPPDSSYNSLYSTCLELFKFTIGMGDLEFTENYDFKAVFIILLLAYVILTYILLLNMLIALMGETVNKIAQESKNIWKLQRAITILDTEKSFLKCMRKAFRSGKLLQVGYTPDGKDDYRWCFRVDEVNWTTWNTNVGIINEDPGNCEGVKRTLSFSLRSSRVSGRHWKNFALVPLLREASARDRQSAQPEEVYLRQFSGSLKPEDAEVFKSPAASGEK

Substance | block of TRPV1-mediated increase in intracellular calcium concentration in response to pH 5.5 | block of TRPV1-mediated increase in intracellular calcium concentration in response to capsaicin
N-[(4R)-2,2-diethyl-6-fluoro-3,4-dihydro-2H-chromen-4-yl]-N-(3-methylisoquinolin-5-yl)urea [Example 56] | did not completely block | completely blocked
N-[(4R)-2,2-diethyl-8-fluoro-3,4-dihydro-2H-chromen-4-yl]-N-(3-methylisoquinolin-5-yl)urea [Example 62] | did not completely block | completely blocked
